Data taken from publication PMC9833666, “Designing and identifying β-hairpin peptide macrocycles with antibiotic potential” (Science Advances, 2023).
Bridge positions count the residues as written; N and C are the ends. Peptide text beside a SMILES is read from it.

Test system: Escherichia coli W3110
Format: cell-based
Conditions: for Ec W3110 MIC MH: E. coli W3110, MH medium; for Ec W3110 MIC RPMI: E. coli W3110, RPMI medium
Procedure: MICs were performed by a modifiedClinical and Laboratory Standards Institute) procedure. […] Separately, E. coli W3110 or A. baumannii AB5075 was grown overnight in 5 ml of standard MH at 37°C. Cells from these cultures were diluted to a concentration of 5 × 10^5 to 6 × 10^5 cells/ml in either standard MH, MHII, RPMI, or fetal bovine serum, and 90 μl was added to each well of the 96-well plate containing diluted peptide. Plates were wrapped twice in parafilm and incubated at 37°C for 18 to 24 hours. Wells were examined by eye against wells with no bacteria for signs of growth. MICs were reported as the minimum concentration with no observable growth. In cases where triplicate samples differed, the concentration supported by the median of the three replicates was reported.

SMILES | W3110 MIC (W3110) [µg/mL] | Ec W3110 MIC MH [µg/mL] | Ec W3110 MIC RPMI [µg/mL] | W3110 MIC MH (W3110) [µg/mL] | W3110 MIC RPMI (W3110) [µg/mL]
CC[C@H](C)[C@@H]1NC(=O)[C@H]([C@@H](C)O)NC(=O)[C@H](C(C)C)NC(=O)[C@@H](N)CSSC[C@@H](C(=O)O)NC(=O)[C@H](C(C)C)NC(=O)[C@H](CCC(N)=O)NC(=O)[C@H](C(C)C)NC(=O)[C@H]([C@@H](C)O)NC(=O)[C@H](C(C)C)NC(=O)[C@H](CCCNC(=N)N)NC(=O)[C@H](CC(C)C)NC(=O)CNC(=O)[C@H](CCCNC(=N)N)NC(=O)[C@H](CCCNC(=N)N)NC(=O)[C@H](CCCNC(=N)N)NC(=O)[C@H](CC(=O)O)NC(=O)[C@H](CC(=O)O)NC(=O)[C@H](CC(C)C)NC(=O)[C@H](CCCNC(=N)N)NC1=O [SyRA-9] (H-CVTIRLDDRRRGLRVTVQVC-OH; disulfide 1-20) | >256 | – | – | – | –
CC[C@H](C)[C@@H]1NC(=O)[C@H](CCCCN)NC(=O)[C@H]([C@@H](C)CC)NC(=O)[C@H](CCCNC(=N)N)NC(=O)[C@@H](N)CSSC[C@@H](C(=O)O)NC(=O)[C@H](CCC(N)=O)NC(=O)[C@H](C(C)C)NC(=O)[C@H](CCC(N)=O)NC(=O)[C@H](CC(C)C)NC(=O)[C@H](CCCCN)NC(=O)[C@H](CC(C)C)NC(=O)[C@H](CCCNC(=N)N)NC(=O)[C@H](CCCNC(=N)N)NC(=O)[C@H](CO)NC(=O)CNC(=O)[C@H](CC(=O)O)NC(=O)[C@H](CC(N)=O)NC(=O)[C@H](C(C)C)NC(=O)[C@H](CC(N)=O)NC1=O [SySA-8] (H-CRIKINVNDGSRRLKLQVQC-OH; disulfide 1-20; N-terminus and C-terminus assumed) | – | 256 | 256 | 256 | 256
CC[C@H](C)[C@@H]1NC(=O)[C@H](CCCNC(=N)N)NC(=O)[C@H](C(C)C)NC(=O)[C@@H](N)CSSC[C@@H](C(=O)O)NC(=O)[C@H](C(C)C)NC(=O)[C@H](CCC(N)=O)NC(=O)[C@H](C(C)C)NC(=O)[C@H](CO)NC(=O)[C@H](C(C)C)NC(=O)[C@H](CCCCN)NC(=O)[C@H](C(C)C)NC(=O)CNC(=O)[C@H](CCCNC(=N)N)NC(=O)[C@H](CCCNC(=N)N)NC(=O)[C@H](CCCNC(=N)N)NC(=O)[C@H](CC(N)=O)NC(=O)[C@H](CC(N)=O)NC(=O)[C@H](CC(C)C)NC(=O)[C@H](CCCNC(=N)N)NC1=O [SySA-66] (H-CVRIRLNNRRRGVKVSVQVC-OH; disulfide 1-20) | – | – | – | 128 | 32
CC[C@H](C)[C@@H]1NC(=O)[C@H](CCCNC(=N)N)NC(=O)[C@H](C(C)C)NC(=O)[C@@H](N)CSSC[C@@H](C(=O)O)NC(=O)[C@H](C(C)C)NC(=O)[C@H](CCC(N)=O)NC(=O)[C@H](CC(C)C)NC(=O)[C@H](CO)NC(=O)[C@H](C(C)C)NC(=O)[C@H](CCCCN)NC(=O)[C@H](C(C)C)NC(=O)CNC(=O)[C@H](CO)NC(=O)[C@H](CCCNC(=N)N)NC(=O)[C@H](CCCNC(=N)N)NC(=O)[C@H](CC(N)=O)NC(=O)[C@H](CC(N)=O)NC(=O)[C@H](C(C)C)NC(=O)[C@H](CCCNC(=N)N)NC1=O [SySA-38] (H-CVRIRVNNRRSGVKVSLQVC-OH; disulfide 1-20; N-terminus and C-terminus assumed) | – | 256 | 8 | 256 | 8
CC[C@H](C)[C@@H]1NC(=O)[C@H](CCCNC(=N)N)NC(=O)[C@H](C(C)C)NC(=O)[C@H](CCCNC(=N)N)NC(=O)[C@H](CCCNC(=N)N)NC(=O)[C@H](CCCNC(=N)N)NC(=O)[C@H](CCCNC(=N)N)NC(=O)[C@H](CC(N)=O)NC(=O)[C@H](CC(N)=O)NC(=O)[C@H](C(C)C)NC(=O)[C@H](CCCNC(=N)N)NC(=O)[C@H](C(C)C)NC(=O)[C@H]([C@@H](C)O)NC(=O)[C@H](C(C)C)NC(=O)[C@@H](N)CSSC[C@@H](C(=O)O)NC(=O)[C@H](C(C)C)NC(=O)[C@H](CCC(N)=O)NC(=O)[C@H](C(C)C)NC(=O)[C@H](CO)NC1=O [SySA-11] (H-CVTVRVNNRRRRVRISVQVC-OH; disulfide 1-20; N-terminus and C-terminus assumed) | – | 64 | 16 | 64 | 16
